Patent US9169213B2, “Method of weight management” (Arena Pharmaceuticals, Inc., priority 2012, dated 2015)

Legend:
Type in all cases: in vivo, human
[1] = BLOOM-DM (APD356-010) Phase 3 study: Week 52 outcomes by Week 12/Week 24 responder status, patients with type 2 diabetes mellitus
Method: APD356-010 (BLOOM-DM) was a 52-week, placebo controlled study that evaluated the effect of two lorcaserin doses (10 mg BID and 10 mg QD) on categorical and total weight loss with concurrent behavior modification in 604 patients with type 2 diabetes mellitus managed with oral hypoglycemic agents. Randomization to the 10 mg once daily group was halted by protocol amendment in order to accelerate enrollment, resulting in final group sizes of 253 (placebo), 95 (lorcaserin QD) and 256 (lorcaserin BID).
(§1) An analysis of early weight loss was performed, at each visit after baseline through Week 24, as a predictor of ultimate weight loss success, as defined by achieving at least about 5% weight loss at 52 weeks, or at least about 10% weight loss at 52 weeks.
Table 3 and Table 4 provide the sensitivity, specificity, positive predicted value (PPV) and negative predictive value (NPV) at Weeks 12 and 24 for at least about 5% and at least about 10% weight loss at Week 52 in different studies. The rounded percent weight loss at Week 12 for at least 5% and at least about 10% weight loss at Week 52 are about 5% and about 6%, respectively. Using the about 6% weight loss at Week 12 as a criterion enhances the PPV for both about 5% and about 10% categorical weight loss at Week 52, but at the expense of excluding about 10% and about 4% more of the about 5% categorical responders at Week 52 in patients without and with diabetes, respectively, based upon NPV. The rounded optimal thresholds at Week 24 for at least about 5% and at least about 10% weight loss at Week 52 are about 6% and about 9%, respectively. Using the 9% weight loss criterion at Week 24 enhances the PPV for both about 5% and about 10% categorical weight loss at Week 52, but at the expense of excluding about 19% and about 9% more of the about 5% categorical responders at Week 52 in patients without and with diabetes, respectively, based upon NPV. As described below, if at least about a 5% weight loss criterion is applied, patients achieving this milestone will achieve an average of about 10.8% weight loss in patients without diabetes and about 9.1% weight loss in patients with diabetes at Week 52.
(§2) Tables 6 and 7, below, present weight loss, vital sign, and glycemic changes at Week 52 in pooled patients without diabetes, patients with T2DM, and pooled patients with impaired fasting glucose (IFG; ≧100 mg/dL) who were Week 12 responders.

[2] = Pooled patients with impaired fasting glucose (IFG) who were Week 12 responders: Week 52 outcomes
Method: as §2

[3] = Pooled BLOOM and BLOSSOM Phase 3 studies: Week 52 outcomes by Week 12/Week 24 responder status, patients without T2DM
Method: APD356-009 (“BLOOM”) was a 104-week, placebo controlled study that assessed the safety and efficacy of lorcaserin 10 mg BID in overweight and obese patients, with concurrent behavior modification. The primary efficacy objective during Year 1 was to evaluate weight loss; the primary objective during Year 2 was to assess the ability of lorcaserin to maintain body weight loss that was achieved during Year 1. At study start, each patient received randomized, double blind treatment assignments for Year 1 and for Year 2 (all patients were given a new randomization number for Year 2 to assure that patients and study personnel remained blinded to treatment assignments). All patients assigned to placebo during Year 1 (50% of randomized population) remained on placebo in Year 2. Patients assigned to lorcaserin during Year 1 were randomly assigned to stay on lorcaserin during Year 2 (⅔ of Year 1 lorcaserin patients) or to switch to placebo (⅓ of Year 1 lorcaserin patients).
APD356-011 (“BLOSSOM”) was a 52-week, placebo controlled study that evaluated the effect of two lorcaserin doses (10 mg BID and 10 mg QD) on categorical and total weight loss with concurrent behavior modification. Patients were randomized in a ratio of 2:1:2 to lorcaserin 10 mg BID, 10 mg QD, or placebo.
as §1

[4] = Week 12 Responder (≧5% weight loss), MITT with LOCF, 10 mg BID
[5] = Week 12 responders, patients with T2DM, 10 mg BID
[6] = all patients with T2DM, MITT-LOCF
[7] = percent change from baseline at Week 52, Week 12 responders, patients with T2DM, 10 mg BID
[8] = Week 12 responders with impaired fasting glucose (IFG) at baseline
[9] = Week 12 responders, patients with IFG, 10 mg BID
[10] = percent change from baseline at Week 52, Week 12 responders, patients with IFG, 10 mg BID
[11] = Week 12 responders without diabetes
[12] = Week 12 responders, patients without T2DM, 10 mg BID
[13] = all patients without T2DM, MITT-LOCF
[14] = percent change from baseline at Week 52, Week 12 responders, patients without T2DM, 10 mg BID

(R)-8-chloro-1-methyl-2,3,4,5-tetrahydro-1H-3-benzazepine hydrochloride salt hemihydrate [drug]
Week 52 Weight 5% Responder [1, 4]: 71%
Week 52 Weight 10% Responder [1, 4]: 36%
Week 52 reduction in diastolic blood pressure ([1]; Week 12 responders with T2DM): 1.9 mmHg
Week 52 reduction in heart rate ([1]; Week 12 responders with T2DM): 3.2 BPM
Week 52 reduction in systolic blood pressure ([1]; Week 12 responders with T2DM): 2.6 mmHg
A1C W52 Change [1, 5]: −1.2%
DBP W52 Change [1, 5]: −1.9 mmHg
FPG W52 Change [1, 5]: -29.3 mg/dL
Heart Rate W52 Change [1, 5]: −3.2 bpm
SBP W52 Change [1, 5]: −2.6 mmHg
Weight Loss ≧5% (%) at W52 [1, 5]: 70.5%
Weight Loss ≧10% (%) at W52 [1, 5]: 35.9%
Weight W52 Change [1, 5]: -9.3 kg
proportion achieving ≧5% weight loss at Week 52 [1, 6]: 38%
weight loss at Week 52 [1, 6]: 4.7 kg
Week 52 reduction in A1C ([1]; diabetic Week 12 responders): 1.2%
Week 52 reduction in FPG ([1]; diabetic Week 12 responders): 29.3 mg/dL
Week 12 Responder (at least 5% weight loss at Week 12), percentage of patients ([1]; of patients with observed Week 12 data, type 2 diabetes, 10 mg BID): 35.9%
HDL-C (mg/dL)* W52 Change [1, 7]: 8.8%
LDL-C (mg/dL)* W52 Change [1, 7]: 1.4%
Total Cholesterol (mg/dL)* W52 Change [1, 7]: −0.7%
Triglycerides (mg/dL)* W52 Change [1, 7]: −17.8%
Week 52 reduction in A1C [2, 8]: 0.4%
Week 52 reduction in FPG [2, 8]: 7.8 mg/dL
A1C W52 Change [2, 9]: −0.11%
DBP W52 Change [2, 9]: −1.5 mmHg
FPG W52 Change [2, 9]: -7.8 mg/dL
Heart Rate W52 Change [2, 9]: −3.7 bpm
SBP W52 Change [2, 9]: −1.7 mmHg
Weight Loss ≧5% (%) at W52 [2, 9]: 88.8%
Weight Loss ≧10% (%) at W52 [2, 9]: 52.4%
Weight W52 Change [2, 9]: -11.2 kg
HDL-C (mg/dL)* W52 Change [2, 10]: 2.1%
LDL-C (mg/dL)* W52 Change [2, 10]: 2.5%
Total Cholesterol (mg/dL)* W52 Change [2, 10]: −2.3%
Triglycerides (mg/dL)* W52 Change [2, 10]: −15.5%
Week 52 Weight 5% Responder [3, 4]: 86%
Week 52 Weight 10% Responder [3, 4]: 50%
Week 52 reduction in diastolic blood pressure [3, 11]: 2.5 mmHg
Week 52 reduction in heart rate [3, 11]: 2.5 BPM
Week 52 reduction in systolic blood pressure [3, 11]: 3.4 mmHg
A1C W52 Change [3, 12]: −0.18%
DBP W52 Change [3, 12]: −2.5 mmHg
FPG W52 Change [3, 12]: -2.2 mg/dL
Heart Rate W52 Change [3, 12]: −2.5 bpm
SBP W52 Change [3, 12]: −3.4 mmHg
Weight Loss ≧5% (%) at W52 [3, 12]: 85.5%
Weight Loss ≧10% (%) at W52 [3, 12]: 49.8%
proportion achieving ≧5% weight loss at Week 52 [3, 13]: 47%
weight loss at Week 52 [3, 13]: 5.8 kg
Week 12 Responder (at least 5% weight loss at Week 12), percentage of patients ([3]; of patients with observed Week 12 data, without diabetes, 10 mg BID): 49.3%
HDL-C (mg/dL)* W52 Change [3, 14]: 4.6%
LDL-C (mg/dL)* W52 Change [3, 14]: 1.1%
Total Cholesterol (mg/dL)* W52 Change [3, 14]: −1.7%
Triglycerides (mg/dL)* W52 Change [3, 14]: −14.5%
